Numbered stars: 1 amine (or outer) side, 2 acyl side, 3 side chain; on linkers, the order of the positions; unused ones are H or OH. Bridge positions count the residues as written; N and C are the ends. Square brackets hold non-standard residues; d marks the D form. Peptide text beside a SMILES is read from it. Trp(βS-Me,7-OMe) = COc1cccc2c([C@H](C)[C@H](N)C(=O)O)c[nH]c12; X34 = O=C([C@H](Cc1c[nH]c2c(Cl)c(F)ccc12)N[*:1])[*:2]; Phe(4-NHCONH2) = NC(=O)Nc1ccc(C[C@H](N)C(=O)O)cc1; Trp(7-CN) = N#Cc1cccc2c(C[C@H](N)C(=O)O)c[nH]c12; Trp(7-Cl) = N[C@@H](Cc1c[nH]c2c(Cl)cccc12)C(=O)O; Phe(4-CONH2) = NC(=O)c1ccc(C[C@H](N)C(=O)O)cc1; Phe(4-COOH) = N[C@@H](Cc1ccc(C(=O)O)cc1)C(=O)O; 4Pal(3S-Me) = C[C@@H](c1ccncc1)[C@H](N)C(=O)O; X1 = O=C([C@@H]1CC[C@H](N[*:1])C1)[*:2]; Pip(4-aza) = O=C(O)[C@@H]1CNCCN1; 4Pal = N[C@@H](Cc1ccncc1)C(=O)O; NMeE = CN[C@@H](CCC(=O)O)C(=O)O; dHyp = O=C(O)[C@H]1C[C@H](O)CN1; Ahp(2) = CCCCC[C@H](N)C(=O)O; NMeS = CN[C@@H](CO)C(=O)O; αMeS = C[C@](N)(CO)C(=O)O; Nle = CCCC[C@H](N)C(=O)O; Sar = CNCC(=O)O
Columns and labels:
[1] = target: T1, human soluble TNFR1 (sTNFR1) (Homo sapiens, UniProt P19438); test: Human sTNFR1-peptide displacement assay (LanthaScreen Eu TR-FRET binding assay)
T1 construct: made in house; host or cells: Sf21 (baculovirus)
T1 sequence (P19438 with tags, fused parts or gaps): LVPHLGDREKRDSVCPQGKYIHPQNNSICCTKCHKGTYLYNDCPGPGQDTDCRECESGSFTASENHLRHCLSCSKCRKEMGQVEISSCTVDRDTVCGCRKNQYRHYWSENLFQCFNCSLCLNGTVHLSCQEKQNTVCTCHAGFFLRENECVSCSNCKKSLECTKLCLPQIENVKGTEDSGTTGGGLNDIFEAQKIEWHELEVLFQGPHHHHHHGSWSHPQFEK
Method in brief: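 Readout is the 665/615 nm TR-FRET ratio (Eu anti-His donor, streptavidin-Alexa647 acceptor), normalized to DMSO and saturating displacer, fit by Morrison-based five-parameter logistic for Kd^app. His-tagged sTNFR1 (1-211) prebound to 100 nM biotinylated peptide SEQ ID NO.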

[2] = target: T2, human TNFR1 extracellular domain (ECD) protein (Homo sapiens, UniProt P19438); test: SPR binding affinity to captured human TNFR1 ECD
T2 construct: HRV 3C protease cleavage site (C); 6His (C, cleaved yes); made in house; host or cells: Sf21 insect cells (baculovirus), secreted
T2 sequence (P19438 30-211): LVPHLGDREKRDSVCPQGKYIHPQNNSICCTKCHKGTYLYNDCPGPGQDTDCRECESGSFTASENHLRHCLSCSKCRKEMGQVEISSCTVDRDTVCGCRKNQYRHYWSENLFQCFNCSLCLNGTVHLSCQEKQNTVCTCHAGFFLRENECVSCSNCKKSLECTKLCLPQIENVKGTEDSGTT
Method in brief: (§1)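 Peptide binding kinetics read by SPR in HEPES pH 7.4 running buffer with 2% DMSO, with TNFR2 ECD tested in parallel for off-target binding. Receptor ECDs, insect-cell expressed and biotinylated at C-terminal avi-tag, were captured via streptavidin. KA derived from association and dissociation rate constants.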

human TNFR2 ECD protein = target: T3, human TNFR2 ECD protein (Homo sapiens, UniProt P20333); test: SPR off-target binding (selectivity) to human TNFR2 ECD
T3 construct: HRV 3C protease cleavage site (C); 6His (C, cleaved yes); made in house; host or cells: Sf21 insect cells (baculovirus), secreted
T3 sequence (P20333 23-257): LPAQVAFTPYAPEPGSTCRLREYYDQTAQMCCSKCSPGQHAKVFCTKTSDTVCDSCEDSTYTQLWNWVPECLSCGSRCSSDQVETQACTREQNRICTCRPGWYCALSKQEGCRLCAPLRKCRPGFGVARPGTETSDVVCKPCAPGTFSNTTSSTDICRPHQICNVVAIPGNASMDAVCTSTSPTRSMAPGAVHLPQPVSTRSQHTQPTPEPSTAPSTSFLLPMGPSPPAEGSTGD
Method in brief: as §1

[3] = target: T4, TNFα-induced NF-κB signal transduction pathway (TNFR1 signaling) in THP-1 cells (Homo sapiens, UniProt P19438); test: THP-1 Lucia NF-κB reporter cell assay, inhibition of TNFα-induced NF-κB signaling; assay type: cell-based; settings: THP-1 NF-κB Lucia reporter cells, 10 ng/mL TNFα, 16-18 h, secreted luciferase; read-out: THP-1 IC50
T4 sequence (P19438 30-455): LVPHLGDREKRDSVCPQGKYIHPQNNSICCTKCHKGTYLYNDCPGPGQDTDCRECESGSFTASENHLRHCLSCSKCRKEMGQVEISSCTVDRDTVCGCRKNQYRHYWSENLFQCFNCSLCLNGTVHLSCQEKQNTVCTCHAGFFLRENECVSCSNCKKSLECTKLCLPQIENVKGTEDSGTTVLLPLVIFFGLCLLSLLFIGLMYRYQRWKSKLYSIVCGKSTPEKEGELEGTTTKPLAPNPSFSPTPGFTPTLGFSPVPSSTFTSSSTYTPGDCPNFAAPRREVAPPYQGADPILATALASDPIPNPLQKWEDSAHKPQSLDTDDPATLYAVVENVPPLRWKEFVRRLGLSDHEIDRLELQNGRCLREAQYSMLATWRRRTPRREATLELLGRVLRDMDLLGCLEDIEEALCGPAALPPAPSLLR
Method in brief: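 Read-out: secreted Lucia luciferase luminescence (QUANTI-Luc) from supernatant after 16-18 h, 37 °C, 10 ng/mL rhTNFα. Peptide pretreatment 1 h at 37 °C; 20,000 cells/well, selection antibiotics omitted. IC50 via 4-parameter logistic model against min/max controls.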

| Compound | Kd [1] | Kd [2] | Kd (human TNFR2 ECD protein) | IC50 [3] |
| --- | --- | --- | --- | --- |
| CCCCC[C@@H]1NC(=O)[C@@H]2CC[C@@H](C2)NC(=O)[C@H]([C@@H](C)c2c[nH]c3c(OC)cccc23)NC(=O)CN(C)C(=O)[C@H](Cc2ccc(C(N)=O)cc2)NC(=O)[C@H](Cc2ccc(C(N)=O)cc2)NC(=O)[C@](C)(CO)NC(=O)[C@H](Cc2c[nH]c3c(C#N)cccc23)NC(=O)[C@H](Cc2ccc(C(=O)O)cc2)NC(=O)[C@H](CC(N)=O)NC(=O)[C@H]2C[C@H](O)CN2C(=O)[C@H](Cc2c[nH]c3ccccc23)NC(=O)[C@H](CC(N)=O)NC(=O)[C@H]([C@@H](C)c2ccncc2)NC1=O [SEQ ID NO. 92] (cyclo([Ahp(2)][4Pal(3S-Me)]NW[dHyp]N[Phe(4-COOH)][Trp(7-CN)][αMeS][Phe(4-CONH2)][Phe(4-CONH2)][Sar][Trp(βS-Me,7-OMe)][X1])) | 0.24 nM | 0.05 nM | > 1000 nM | – |
| CCCCC[C@@H]1NC(=O)[C@@H]2CC[C@@H](C2)NC(=O)[C@H]([C@@H](C)c2c[nH]c3c(OC)cccc23)NC(=O)CN(C)C(=O)[C@H](Cc2ccc(C(N)=O)cc2)NC(=O)[C@H](Cc2ccc(C(=O)O)cc2)NC(=O)[C@](C)(CO)NC(=O)[C@H](Cc2c[nH]c3c(Cl)c(F)ccc23)NC(=O)[C@H](Cc2ccncc2)NC(=O)[C@H](CC(N)=O)NC(=O)[C@H]2C[C@H](O)CN2C(=O)[C@H](Cc2c[nH]c3ccccc23)NC(=O)[C@@H]2CNCCN2C(=O)[C@H](Cc2ccncc2)NC1=O [SEQ ID NO. 112] (cyclo([4Pal][Pip(4-aza)]W[dHyp]N[4Pal][X34][αMeS][Phe(4-COOH)][Phe(4-CONH2)][Sar][Trp(βS-Me,7-OMe)][X1][Ahp(2)])) | 0.24 nM | 0.03 nM | > 1000 nM | – |
| CCCC[C@@H]1NC(=O)CSC[C@@H](C(N)=O)NC(=O)[C@H]([C@@H](C)c2c[nH]c3c(OC)cccc23)NC(=O)CN(C)C(=O)[C@H](Cc2ccc(O)cc2)NC(=O)[C@H](Cc2ccc(C(=O)O)cc2)NC(=O)[C@](C)(CO)NC(=O)[C@H](Cc2c[nH]c3c(Cl)cccc23)NC(=O)[C@H](Cc2ccc(C(=O)O)cc2)NC(=O)[C@H](CC(N)=O)NC(=O)[C@H](CCC(=O)O)N(C)C(=O)[C@H](Cc2c[nH]c3ccccc23)NC(=O)[C@H](CO)N(C)C(=O)[C@H](Cc2ccc(C(N)=O)cc2)NC1=O [SEQ ID NO. 123] ({CH2CO}-[Nle][Phe(4-CONH2)][NMeS]W[NMeE]N[Phe(4-COOH)][Trp(7-Cl)][αMeS][Phe(4-COOH)]Y[Sar][Trp(βS-Me,7-OMe)]C-NH2; thioether N-14) | – | 0.32 nM | > 1000 nM | 4.1 nM |
| CCCC[C@@H]1NC(=O)[C@@H]2CC[C@@H](C2)NC(=O)[C@H]([C@@H](C)c2c[nH]c3c(OC)cccc23)NC(=O)CN(C)C(=O)[C@H](Cc2ccc(O)cc2)NC(=O)[C@H](Cc2ccc(NC(N)=O)cc2)NC(=O)[C@](C)(CO)NC(=O)[C@H](Cc2c[nH]c3c(Cl)cccc23)NC(=O)[C@H](Cc2ccncc2)NC(=O)[C@H](CC(N)=O)NC(=O)[C@H](CCC(=O)O)N(C)C(=O)[C@H](Cc2c[nH]c3ccccc23)NC(=O)[C@@H]2CNCCN2C(=O)[C@H](Cc2ccncc2)NC1=O [SEQ ID NO. 127] (cyclo([4Pal][Trp(7-Cl)][αMeS][Phe(4-NHCONH2)]Y[Sar][Trp(βS-Me,7-OMe)][X1][Nle][4Pal][Pip(4-aza)]W[NMeE]N)) | – | 0.18 nM | > 1000 nM | 0.8 nM |

From patent publication US20240287138A1, “CYCLIC PEPTIDES FOR INHIBITING TNF RECEPTOR 1 ACTIVITY” (Merck Sharp & Dohme LLC, priority 2023, published 2024)
